Laboratory results published in ChEMBL document CHEMBL1201862, “PubChem BioAssay data set” (2004).
Values belong to the compound of their own block, whether it stands above or below them. Calls of active or inactive are those of the source.

What was measured:
[1] = biological target: T1, Short transient receptor potential channel 4 (Mus musculus, UniProt Q9QUQ5); test: mouse TRPC4 channel activators, dose response, cell-based, HEK293 TRPC4/mu-opioid, Fluo-4 calcium (AID 434937); format: functional
T1 sequence (Q9QUQ5 whole entry): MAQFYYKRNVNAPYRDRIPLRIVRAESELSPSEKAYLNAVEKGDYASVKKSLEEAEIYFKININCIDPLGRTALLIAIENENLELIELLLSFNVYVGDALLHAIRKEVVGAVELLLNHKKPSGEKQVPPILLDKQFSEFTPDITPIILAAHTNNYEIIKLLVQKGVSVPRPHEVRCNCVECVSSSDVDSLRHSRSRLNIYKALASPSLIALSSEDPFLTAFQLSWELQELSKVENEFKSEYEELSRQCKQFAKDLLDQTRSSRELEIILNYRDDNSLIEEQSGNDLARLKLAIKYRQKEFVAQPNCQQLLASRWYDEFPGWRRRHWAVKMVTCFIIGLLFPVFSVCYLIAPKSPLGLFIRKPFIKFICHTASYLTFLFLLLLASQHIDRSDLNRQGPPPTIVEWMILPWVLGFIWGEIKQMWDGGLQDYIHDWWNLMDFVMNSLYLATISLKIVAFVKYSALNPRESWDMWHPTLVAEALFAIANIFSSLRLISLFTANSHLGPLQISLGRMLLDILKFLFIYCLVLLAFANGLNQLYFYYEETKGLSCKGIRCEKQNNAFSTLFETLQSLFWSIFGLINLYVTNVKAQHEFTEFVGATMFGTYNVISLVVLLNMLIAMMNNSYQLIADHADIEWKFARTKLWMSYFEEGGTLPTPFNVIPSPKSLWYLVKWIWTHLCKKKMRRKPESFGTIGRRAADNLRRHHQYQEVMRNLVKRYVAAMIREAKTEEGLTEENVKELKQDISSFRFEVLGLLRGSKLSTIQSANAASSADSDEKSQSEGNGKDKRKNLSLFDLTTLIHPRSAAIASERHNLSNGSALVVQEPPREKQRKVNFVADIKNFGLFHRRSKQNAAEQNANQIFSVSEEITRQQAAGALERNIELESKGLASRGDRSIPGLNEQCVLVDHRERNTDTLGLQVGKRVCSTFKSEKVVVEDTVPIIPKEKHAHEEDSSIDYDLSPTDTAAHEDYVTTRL

[2] = biological target: Delta-type opioid receptor (Homo sapiens, UniProt P41143); test: Counterscreen for agonists of heterodimerization of the mu 1 (OPRM1) and delta 1 (OPRD1) opioid receptors: Luminescence-based cell-based high throughput dose response assay to identify agonists of OPRD1 homodimerization. [Related pubchem assays (depositor defined):AID504326, AID504355, AID504692, AID504904, AID504905]; format: functional
Chain of Delta-type opioid receptor (P41143 whole entry): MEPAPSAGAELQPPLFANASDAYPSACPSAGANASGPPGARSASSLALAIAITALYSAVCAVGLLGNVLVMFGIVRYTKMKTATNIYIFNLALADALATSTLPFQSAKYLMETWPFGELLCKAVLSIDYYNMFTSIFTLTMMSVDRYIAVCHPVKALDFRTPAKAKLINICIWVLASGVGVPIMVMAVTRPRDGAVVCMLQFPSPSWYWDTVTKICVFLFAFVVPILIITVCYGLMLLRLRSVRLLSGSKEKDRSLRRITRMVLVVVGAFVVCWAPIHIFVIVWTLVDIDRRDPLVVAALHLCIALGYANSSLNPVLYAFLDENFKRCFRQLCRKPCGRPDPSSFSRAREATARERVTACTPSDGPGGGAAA

Mu-type opioid receptor = Mu-type opioid receptor (Homo sapiens, UniProt P35372); test: Counterscreen for agonists of heterodimerization of the mu 1 (OPRM1) and delta 1 (OPRD1) opioid receptors: Luminescence-based cell-based high throughput dose response assay to identify agonists of OPRM1 homodimerization.; format: functional;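 note: U2OS cells expressing OPRM1 and beta-arrestin as split beta-galactosidase partners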
Chain of Mu-type opioid receptor (P35372 whole entry): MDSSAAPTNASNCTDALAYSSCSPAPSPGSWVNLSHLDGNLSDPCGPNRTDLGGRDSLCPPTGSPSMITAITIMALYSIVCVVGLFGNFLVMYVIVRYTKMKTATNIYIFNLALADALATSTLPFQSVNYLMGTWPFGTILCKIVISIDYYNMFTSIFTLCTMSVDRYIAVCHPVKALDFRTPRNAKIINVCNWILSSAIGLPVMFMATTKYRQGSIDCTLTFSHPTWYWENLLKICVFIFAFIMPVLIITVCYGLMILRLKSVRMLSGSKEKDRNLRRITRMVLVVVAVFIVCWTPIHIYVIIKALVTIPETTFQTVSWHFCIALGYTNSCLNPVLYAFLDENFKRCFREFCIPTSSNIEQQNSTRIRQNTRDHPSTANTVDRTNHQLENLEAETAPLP

[3] = biological target: 5-hydroxytryptamine receptor 5A (Homo sapiens, UniProt P47898); test: Counterscreen for agonists of OPRM1-OPRD1 heterodimerization: luminescence-based cell-based high throughput dose response assay to identify agonists of 5-hydroxytryptamine (serotonin) 5A receptor (HTR5A). [Related pubchem assays (depositor defined):AID504326, AID504355, AID504692, AID504904, AID504905]; format: functional
Chain of 5-hydroxytryptamine receptor 5A (P47898 whole entry): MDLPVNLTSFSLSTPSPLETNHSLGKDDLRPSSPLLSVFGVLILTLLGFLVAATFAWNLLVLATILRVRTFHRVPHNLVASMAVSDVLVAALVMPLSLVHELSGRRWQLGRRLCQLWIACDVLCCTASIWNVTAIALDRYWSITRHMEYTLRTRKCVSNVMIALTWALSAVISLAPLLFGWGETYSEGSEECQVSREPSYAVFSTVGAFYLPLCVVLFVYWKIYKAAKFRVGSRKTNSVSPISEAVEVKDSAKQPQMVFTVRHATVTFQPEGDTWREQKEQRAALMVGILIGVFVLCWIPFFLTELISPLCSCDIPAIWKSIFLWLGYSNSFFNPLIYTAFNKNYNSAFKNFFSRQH

[4] = insulin promoter down-regulators in MIN6 cells, imaging, high-content screening, mouse beta cells (AID 1628); format: functional
[5] = cytotoxicity in MIN6 insulinoma cells, dose response, cytotoxicity control, cell-based, mouse insulinoma (AID 2122); format: functional;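 note: confirmatory high-throughput counterscreen run to flag cytotoxic compounds; mouse MIN-6 beta cells carrying an insulin promoter eGFP reporter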
[6] = cytotoxicity in HEK-293T cells, dose response, cytotoxicity control for TCR NF-kB inhibitor project, luminescence, T-cell screen hits (AID 489026); format: functional, cell-based;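 note: cells exposed to compound about 14 hours before the viability readout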
INS1 = test: beta cell apoptosis inhibitors, cytokine rescue, dose response, luminescence, retest (AID 449756); format: functional, cell-based; details: Rattus norvegicus;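 note: cell death triggered by IL-1 beta plus TNF-alpha plus IFN-gamma mixture; protective hits raise ATP signal compared with cytokine alone wells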
[7] = Shn3 3'UTR reporter inhibitors, dose response, cell-based, Clone20 osteoblasts, firefly luciferase, cherry-picked (AID 624132); format: functional;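 note: firefly luciferase luminescence from reporter carrying the Shn3 3'UTR in osteoblasts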
[8] = HepG2 cell cytotoxicity, dose response, cytotoxicity control for Shn3 inhibitor project, CellTiter-Glo, cherry-picked (AID 624134); format: functional, cell-based
[9] = control 3'UTR Renilla luciferase suppression, dose response, counter-screen for Shn3 inhibitor project, cell-based, Clone20-Shn3RL, cherry-picked (AID 624133); format: functional
[10] = biological target: T2, COUP transcription factor 2 (Homo sapiens, UniProt P24468); test: Luminescence-based cell-based high throughput dose response assay to identify inhibitors of COUP-TFII (NR2F2).; format: functional;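 note: HEK293 cells transiently cotransfected with COUP-TFII expression vector and reporter; luciferase reporter luminescence driven by COUP-TFII from the pX2-168 reporter plasmid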
T2 sequence (P24468 whole entry): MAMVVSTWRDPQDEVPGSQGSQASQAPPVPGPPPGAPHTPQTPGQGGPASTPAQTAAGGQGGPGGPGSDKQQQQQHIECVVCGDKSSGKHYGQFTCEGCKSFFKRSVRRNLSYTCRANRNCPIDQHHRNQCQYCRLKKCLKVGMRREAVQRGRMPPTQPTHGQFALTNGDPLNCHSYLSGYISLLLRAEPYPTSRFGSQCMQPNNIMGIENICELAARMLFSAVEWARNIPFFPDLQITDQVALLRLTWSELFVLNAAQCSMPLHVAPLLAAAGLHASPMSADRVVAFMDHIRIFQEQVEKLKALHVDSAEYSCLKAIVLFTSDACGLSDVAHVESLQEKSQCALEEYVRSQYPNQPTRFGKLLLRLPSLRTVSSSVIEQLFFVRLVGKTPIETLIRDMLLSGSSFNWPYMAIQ

[11] = biological target: T3, Tyrosine-protein phosphatase non-receptor type 7 (Homo sapiens, UniProt P35236); format: functional
T3 sequence (P35236 whole entry): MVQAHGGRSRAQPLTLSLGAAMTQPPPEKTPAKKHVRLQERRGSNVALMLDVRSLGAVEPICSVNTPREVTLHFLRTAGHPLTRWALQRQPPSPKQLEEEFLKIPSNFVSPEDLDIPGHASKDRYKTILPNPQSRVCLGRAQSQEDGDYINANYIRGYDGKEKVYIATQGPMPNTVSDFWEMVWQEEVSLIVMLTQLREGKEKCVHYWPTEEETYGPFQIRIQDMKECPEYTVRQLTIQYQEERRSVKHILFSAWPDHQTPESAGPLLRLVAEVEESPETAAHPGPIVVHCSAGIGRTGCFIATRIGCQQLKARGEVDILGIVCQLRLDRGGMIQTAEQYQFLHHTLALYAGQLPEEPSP

[12] = biological target: T4, Tyrosine-protein phosphatase non-receptor type 22 (Homo sapiens, UniProt Q9Y2R2); format: functional
T4 sequence (Q9Y2R2 whole entry): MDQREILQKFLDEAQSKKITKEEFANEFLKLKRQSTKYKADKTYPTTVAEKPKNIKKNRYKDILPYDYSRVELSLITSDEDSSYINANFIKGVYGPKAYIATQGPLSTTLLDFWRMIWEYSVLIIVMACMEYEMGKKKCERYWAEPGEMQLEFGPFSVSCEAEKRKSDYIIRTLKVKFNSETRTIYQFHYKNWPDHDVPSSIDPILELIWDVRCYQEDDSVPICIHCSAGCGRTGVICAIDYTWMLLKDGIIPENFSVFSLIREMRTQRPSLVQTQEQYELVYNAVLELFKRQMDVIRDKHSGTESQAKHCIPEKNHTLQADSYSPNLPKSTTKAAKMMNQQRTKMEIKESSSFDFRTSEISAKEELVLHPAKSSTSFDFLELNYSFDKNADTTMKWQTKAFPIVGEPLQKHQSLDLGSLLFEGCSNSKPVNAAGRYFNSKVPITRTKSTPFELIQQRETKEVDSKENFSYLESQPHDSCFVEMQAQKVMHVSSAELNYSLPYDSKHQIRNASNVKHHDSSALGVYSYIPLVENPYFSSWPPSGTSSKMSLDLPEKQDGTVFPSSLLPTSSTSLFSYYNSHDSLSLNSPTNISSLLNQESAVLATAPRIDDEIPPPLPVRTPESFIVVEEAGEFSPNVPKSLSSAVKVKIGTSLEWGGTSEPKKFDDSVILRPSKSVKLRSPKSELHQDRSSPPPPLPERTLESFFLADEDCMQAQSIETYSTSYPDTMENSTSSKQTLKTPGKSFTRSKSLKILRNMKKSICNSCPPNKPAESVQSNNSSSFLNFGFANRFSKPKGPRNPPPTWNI

[13] = biological target: T4, Tyrosine-protein phosphatase non-receptor type 22; format: functional; remark: listed apart in the source
[14] = biological target: T5, Rac GTPase-activating protein 1 (Homo sapiens, UniProt Q9H0H5); test: MgcRacGAP GTPase-activating activity inhibitors, confirmation, biochemical, ADP Hunter fluorescence, primary and confirmatory (AID 624330); format: functional
T5 sequence (Q9H0H5 whole entry): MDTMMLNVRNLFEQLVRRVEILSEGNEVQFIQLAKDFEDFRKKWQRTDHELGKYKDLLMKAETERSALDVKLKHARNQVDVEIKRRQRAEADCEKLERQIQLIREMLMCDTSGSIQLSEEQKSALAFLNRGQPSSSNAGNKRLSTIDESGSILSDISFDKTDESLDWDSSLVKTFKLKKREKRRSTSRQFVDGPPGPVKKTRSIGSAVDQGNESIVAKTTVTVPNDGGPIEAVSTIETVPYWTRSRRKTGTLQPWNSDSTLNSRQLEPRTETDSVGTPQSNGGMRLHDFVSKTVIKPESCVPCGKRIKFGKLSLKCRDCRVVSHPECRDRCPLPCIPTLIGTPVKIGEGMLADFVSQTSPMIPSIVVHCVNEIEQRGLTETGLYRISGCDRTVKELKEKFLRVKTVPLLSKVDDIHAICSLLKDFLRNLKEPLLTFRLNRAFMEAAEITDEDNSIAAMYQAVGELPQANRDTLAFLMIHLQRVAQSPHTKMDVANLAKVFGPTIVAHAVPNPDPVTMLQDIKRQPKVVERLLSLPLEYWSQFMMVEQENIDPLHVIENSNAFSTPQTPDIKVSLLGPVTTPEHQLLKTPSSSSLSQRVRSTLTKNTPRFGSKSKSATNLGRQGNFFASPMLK

Trypsin = Trypsin (Sus scrofa, UniProt P00761); test: porcine trypsin inhibitors, dose response, selectivity assay for Rce1 protease inhibitor project, biochemical, quenched peptide fluorescence, cherry-pick (AID 488789)
Chain of Trypsin (P00761 whole entry): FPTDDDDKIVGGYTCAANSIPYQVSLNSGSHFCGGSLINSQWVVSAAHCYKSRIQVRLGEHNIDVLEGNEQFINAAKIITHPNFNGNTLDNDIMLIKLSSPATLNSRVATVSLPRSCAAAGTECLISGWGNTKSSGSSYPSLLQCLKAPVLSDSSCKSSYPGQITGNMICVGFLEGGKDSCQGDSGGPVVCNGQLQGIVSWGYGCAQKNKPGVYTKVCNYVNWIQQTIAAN

CAAX prenyl protease 2 [15] = biological target: T6, CAAX prenyl protease 2 (Saccharomyces cerevisiae S288c, UniProt Q03530); format: biochemical
T6 sequence (Q03530 whole entry): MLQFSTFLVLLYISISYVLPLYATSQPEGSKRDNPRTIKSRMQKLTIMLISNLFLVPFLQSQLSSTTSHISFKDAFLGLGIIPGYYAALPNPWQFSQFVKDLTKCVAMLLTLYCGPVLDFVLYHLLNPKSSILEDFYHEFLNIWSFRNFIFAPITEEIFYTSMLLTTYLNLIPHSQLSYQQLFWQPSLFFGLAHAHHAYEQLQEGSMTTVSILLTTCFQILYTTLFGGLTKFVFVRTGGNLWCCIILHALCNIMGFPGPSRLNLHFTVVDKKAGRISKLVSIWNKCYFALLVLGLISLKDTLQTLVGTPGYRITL

CAAX prenyl protease 2 [16] = biological target: CAAX prenyl protease 2 (Homo sapiens, UniProt Q9Y256); test: human Rce1 protease inhibitors, dose response, biochemical, yeast membranes, quenched-peptide fluorescence, cherry-pick (AID 588849)
Chain of CAAX prenyl protease 2 (Homo sapiens, UniProt Q9Y256) (Q9Y256 whole entry): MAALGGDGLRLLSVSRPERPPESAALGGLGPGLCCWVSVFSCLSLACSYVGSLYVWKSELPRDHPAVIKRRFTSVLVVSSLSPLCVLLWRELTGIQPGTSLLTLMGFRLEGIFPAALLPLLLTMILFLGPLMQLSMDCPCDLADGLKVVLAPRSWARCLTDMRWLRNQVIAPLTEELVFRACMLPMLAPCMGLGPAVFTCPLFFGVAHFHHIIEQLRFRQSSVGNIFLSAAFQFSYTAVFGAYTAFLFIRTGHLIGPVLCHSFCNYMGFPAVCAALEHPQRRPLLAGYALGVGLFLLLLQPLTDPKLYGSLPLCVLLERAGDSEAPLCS

IC50 [11]: > 79.4 µM (inactive) | IC50 [12]: > 79.4 µM (inactive) | IC50 [13]: > 79.4 µM (inactive) | IC50 [14]: 41.1 µM (active)
Compound: Cc1[nH]c2ccccc2c1N=Nc1c(C)n(C)n(-c2ccccc2)c1=O

EC50 [1]: 0.188 µM (active) | EC50 [2]: 50 µM (inactive) | EC50 (Mu-type opioid receptor): 4.15 µM (active) | EC50 [3]: > 92.5 µM (inactive)
Compound: Cc1ccc(C)c(NC(S)=NCC(c2ccccc2)N(C)C)c1 (stereo not drawn)

Continued, compound first:

Compound: Cc1ccccc1NC(S)=NCC(c1cccnc1)N(C)C (stereo not drawn)
EC50 [1]: 0.0427 µM (active) | EC50 [2]: 74.6 µM (inactive) | EC50 (Mu-type opioid receptor): 12.5 µM (inactive) | EC50 [3]: > 92.5 µM (inactive)

Compound: CCC1CCCCN1C(=O)c1cc(COc2ccc3ncccc3c2)on1 (stereo not drawn)
IC50 [4]: 0.444 µM (active) | IC50 [5]: 0.339 µM (active) | IC50 [6]: > 80 µM (inactive) | AC50 (INS1): 1.89 µM (active) | AC50 [7]: 0.46 µM (active) | AC50 [8]: 2.06 µM (active) | AC50 [9]: 1.15 µM (active) | IC50 [10]: 4.58 µM (active)

Compound: CCc1cc(=O)oc2c(C)c(OC(C)C(=O)NC3CC(C)(C)NC(C)(C)C3)ccc12 (stereo not drawn)
AC50 (Trypsin): 14.1 µM (active) | AC50 (CAAX prenyl protease 2 [15]): 17.5 µM (active) | AC50 (CAAX prenyl protease 2 [16]): 17 µM (active)
